This assay concerns the target T1, FSH receptor (Homo sapiens, UniProt P23945).
T1 construct: expressed in transfected cells; host or cells: CHO (Chinese Hamster Ovary) cells, stably transfected, carrying a cAMP response element-luciferase reporter
T1 sequence (P23945 18-695): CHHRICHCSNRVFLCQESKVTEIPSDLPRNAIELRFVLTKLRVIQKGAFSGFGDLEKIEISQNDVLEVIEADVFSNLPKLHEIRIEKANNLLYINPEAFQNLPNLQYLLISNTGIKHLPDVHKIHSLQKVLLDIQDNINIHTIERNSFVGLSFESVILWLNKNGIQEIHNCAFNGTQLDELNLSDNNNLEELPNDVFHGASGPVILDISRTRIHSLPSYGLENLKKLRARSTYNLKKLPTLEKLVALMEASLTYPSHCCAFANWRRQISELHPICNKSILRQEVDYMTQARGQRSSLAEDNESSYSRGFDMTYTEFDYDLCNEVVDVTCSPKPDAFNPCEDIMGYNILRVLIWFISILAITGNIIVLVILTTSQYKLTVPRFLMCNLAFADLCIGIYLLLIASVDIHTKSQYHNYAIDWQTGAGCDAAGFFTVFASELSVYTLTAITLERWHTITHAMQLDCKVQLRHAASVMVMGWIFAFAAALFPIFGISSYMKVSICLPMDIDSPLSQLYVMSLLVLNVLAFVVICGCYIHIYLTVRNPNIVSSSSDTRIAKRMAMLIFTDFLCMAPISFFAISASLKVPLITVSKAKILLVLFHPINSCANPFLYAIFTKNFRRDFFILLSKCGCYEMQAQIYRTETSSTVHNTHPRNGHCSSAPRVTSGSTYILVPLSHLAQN
The assay can be described thus: FSH assay: cAMP response element luciferase reporter in CHO cells expressing recombinant FSH receptor. As to conditions: agonist activity; CHO cells stably transfected with recombinant FSH receptor; luciferase luminescence; log-dose-response curves; incubation 37° C. for 3 hrs 30 min; read-out: ED50 (the source's name). In kind it is cell-based. As for the experimental part: Compounds of the invention were tested in the following assay.
All compounds of the invention were stored in 96-well deepwell plates in DMSO at a nominal concentration of 10 μM. Compounds of the invention were screened for agonist activity at the FSH receptor using the recombinant FSH receptor stably transfected and expressed in Chinese Hamster Ovary Cells (CHO cells) essentially as described in the work by Kelton, et al. Molecular and Cellular Endocrinology, 1992, 89, 141-151). […] Thus an agonist at the FSH receptor increases cAMP in the cell which results in activation of the CREB (cAMP) response element binding protein). The substrate for the enzyme (Packard Instrument Company 800 Research Parkway, Meriden, Conn. 06450, USA) was added to the cells after appropriate incubation with the compounds or FSH and the amount of luciferase expressed was measured by quantitating the luminescence produced by the enzyme using a TopCount scintillation/luminescence counter running in single photon counting mode. A compound which acts as an agonist at the receptor should produce light from the treated cells in proportion to its concentration within the incubation. Luminescence should be saturable at high concentrations of the compound.
The compounds of the invention, in deepwell plates (Master plates) as indicated above were loaded on the robotic deck along with the appropriate number of assay plates and daughter plates. A 10 μl aliquot from each master plate was transferred to the corresponding daughter plate and 90 μl of DME/F12 was added and mixed within each well. 20 μl was then removed from the daughter plate and dispensed into the assay plate. After addition of an aliquot of FSH (equivalent to an EC100 response for this hormone to each of three wells on the plate, 80 μl of media (DME/F 12±2% serum) and 100 μl aliquot of cells (4×10^5/ml in the same media) were added and the plate incubated at 37° C. for 3 hrs 30 min. At this time the plate was removed from the incubator and media in each well was aspirated and the cells adhering to the bottom of the plate washed with 300 μl PBS containing 1 mM Ca^2+ and 1 mM Mg^2+. The PBS was aspirated and 100 μl PBS added to each well. 100 μl of Lucite (prepared as described by the manufacturer) was added to each well and the plate was shaken gently for 40 seconds prior to placement in the TopCount plate reader. After allowing 3.5 minutes for the plate to dark-adapt within the machine, the amount of luminescence generated was quantitated using Single Photon Counting mode. The data was transmitted electronically from the TopCount to the robot processing computer terminal and was renamed with an ID corresponding to the original master plate ID. […] LDR (log-dose-response) curves were generated for these compounds in CHO cells containing the FSH receptor and these curves were also compared with those in either cells expressing a different Gs linked receptor or in cells lacking any transfected receptor.
(A reporter such as luciferase makes a cellular process visible.)
With `CCCCCCN1CCN(S(=O)(=O)c2ccccc2F)[C@H](C(=O)Nc2ccc3c(c2)nc(-c2cccnc2)n3CC)C1` [1-(2-fluoro-benzenesulfonyl)-4-hexyl-piperazine-2-carboxylic acid (1-ethyl-2-pyridin-3-yl-1H-benzoimidazol-5-yl)amide], the EC50 stood at 0.074 µM. Take `CCCCCCN1CCN(S(=O)(=O)c2ccc(F)cc2)[C@H](C(=O)Nc2ccc3c(c2)nc(-c2cccnc2)n3CC)C1` [1-(4-fluoro-benzenesulfonyl)-4-hexyl-piperazine-2-carboxylic acid (1-ethyl-2-pyridin-3-yl-1H-benzoimidazol-5-yl)amide]: the EC50 came to 0.167 µM. As for `CCCCCCN1CCN(S(=O)(=O)CCCC)[C@H](C(=O)Nc2ccc3c(c2)nc(-c2cccnc2)n3CC)C1` [1-(butane-1-sulfonyl)-4-hexyl-piperazine-2-carboxylic acid (1-ethyl-2-pyridin-3-yl-1H-benzoimidazol-5-yl)amide], the figure is 0.17 µM; as for `CCCCCCN1CCN(S(=O)(=O)c2ccccc2)[C@H](C(=O)Nc2ccc3c(c2)nc(-c2cccnc2)n3CC)C1` [1-benzenesulfonyl-4-hexyl-piperazine-2-carboxylic acid (1-ethyl-2-pyridin-3-yl-1H-benzoimidazol-5-yl)amide], 0.15 µM; as for `CCCCCCN1CCN(S(=O)(=O)N(C)C)C(C(=O)Nc2ccc3c(c2)nc(-c2cccnc2)n3CC)C1` (stereo not shown) [1-dimethylsulfamoyl-4-hexyl-piperazine-2-carboxylic acid (1-ethyl-2-pyridin-3-yl-1H-benzoimidazol-5-yl) amide], 0.242 µM. Next, `CCOC(=O)CN1CCN(S(=O)(=O)c2cccs2)[C@H](C(=O)Nc2ccc3c(c2)c2ccccc2n3CC)C1` [3-(9-ethyl-9H-carbazol-3-ylcarbamoyl)-4-(thiophene-2-sulfonyl)-piperazin-1-yl] acetic acid ethyl ester]: 0.61 µM; `CCCCCNC(=O)N1CCN(S(=O)(=O)c2cn(C)cn2)[C@H](C(=O)Nc2ccc3c(c2)c2ccccc2n3CC)C1` [4-(1-methyl-1H-imidazole-4-sulfonyl)-piperazine-1,3-dicarboxylic acid 3-[(9-ethyl-9H-carbazol-3-yl)-amide]1-pentylamide]: 3.16 µM. As for `CCn1c(-c2ccncc2)nc2cc(NC(=O)[C@@H]3CN(CCCSC)CCN3S(=O)(=O)c3cccs3)ccc21` [4-(3-methylsulfanyl-propyl)-1-(thiophene-2-sulfonyl)-piperazine-2-carboxylic acid (1-ethyl-2-pyridin-4-yl-1H-benzoimidazol-5-yl)amide], the figure is 14 µM; as for `CCn1c2ccccc2c2cc(NC(=O)[C@@H]3CN(CCCSC)CCN3S(=O)(=O)c3cccs3)ccc21` [4-(3-methylsulfanyl-propyl)-1-(thiophene-2-sulfonyl)-piperazine-2-carboxylic acid (9-ethyl-9H-carbazol-3-yl)-amide], 1.7 µM; as for `CCc1cocc1CN1CCN(S(=O)(=O)c2cccs2)[C@H](C(=O)Nc2ccc3c(c2)c2ccccc2n3CC)C1` [4-(4-ethyl-furan-3-ylmethyl)-1-(thiophene-2-sulfonyl)-piperazine-2-carboxylic acid (9-ethyl-9H-carbazol-3-yl)-amide], 1.6 µM. In the case of `CCCCCNC(=O)N1CCN(S(=O)(=O)c2cccs2)[C@H](C(=O)Nc2cccc(-c3ccncc3)c2)C1` [4-(thiophene-2-sulfonyl)-piperazine-1,3-dicarboxyclic acid 1-pentylamide 3-[(3-pyridin-4-yl-phenyl)-amide]], the EC50 is 5 µM.

`CCNC(=O)N1CCN(S(=O)(=O)c2cccs2)[C@H](C(=O)Nc2ccc3c(c2)c2ccccc2n3CC)C1` [4-(thiophene-2-sulfonyl)-piperazine-1,3-dicarboxylic acid 1-ethylamide 3-[(9-ethyl-9H-carbazol-3-yl)amide]]: the EC50 was 0.877 µM. Next, `CCn1c2ccccc2c2cc(NC(=O)[C@@H]3CN(C(=O)NCCCn4ccnc4)CCN3S(=O)(=O)c3cccs3)ccc21` [4-(thiophene-2-sulfonyl)-piperazine-1,3-dicarboxylic acid 3-[(9-ethyl-9H-carbazol-3-yl)-amide]1-[(3-imidazol-1-yl-propyl)-amide])]: 6.47 µM.

In the case of `CCn1c2ccccc2c2cc(NC(=O)[C@@H]3CN(C(=O)NCCOC)CCN3S(=O)(=O)c3cccs3)ccc21` [4-(thiophene-2-sulfonyl)-piperazine-1,3-dicarboxylic acid 3-[(9-ethyl-9H-carbazol-3-yl)-amide]1-{(2-methoxy-ethyl)-amide]], the EC50 is 1.61 µM. Next, `CCn1c2ccccc2c2cc(NC(=O)[C@@H]3CN(C(=O)NCCc4c[nH]cn4)CCN3S(=O)(=O)c3cccs3)ccc21` [4-(thiophene-2-sulfonyl)-piperazine-1,3-dicarboxylic acid 3-[(9-ethyl-9H-carbazol-3-yl)-amide] 1-{[2-(1H-imidazol-4-yl)-ethyl]-amide}]: 6.25 µM; `CCCCCNC(=O)N1CCN(S(=O)(=O)c2cccs2)[C@H](C(=O)Nc2ccc3c(c2)c2ccccc2n3CC)C1` [4-(thiophene-2-sulfonyl)-piperazine-1,3-dicarboxylic acid 3-[(9-ethyl-9H-carbazol-3-yl)amide]-1-pentylamide]: 0.063 µM; `CCCCCNC(=O)N1CCN(S(=O)(=O)N(C)C)[C@H](C(=O)Nc2ccc3c(c2)c2ccccc2n3CC)C1` [4-dimethylsulfamoyl-piperazine-1,3-dicarboxylic acid 3-[(9-ethyl-9H-carbazol-3-yl)-amide]1-pentylamide]: 0.403 µM. As for `CCCCCCCN1CCN(S(=O)(=O)c2cccs2)[C@H](C(=O)Nc2ccc3c(c2)nc(-c2cccnc2)n3CC)C1` [4-heptyl-1-(thiophene-2-sulfonyl)-piperazine-2-carboxylic acid (1-ethyl-2-pyridin-3-yl-1H-benzoimidazol-5-yl)-amide], the figure is 0.094 µM; as for `CCCCCCCN1CCN(S(=O)(=O)c2cccs2)[C@H](C(=O)Nc2ccc3c(c2)nc(-c2ccncc2)n3CC)C1` [4-heptyl-1-(thiophene-2-sulfonyl)-piperazine-2-carboxylic acid (1-ethyl-2-pyridin-4-yl-1H-benzoimidazol-5-yl)amide], 0.053 µM. In the case of `CCCCCCCN1CCN(S(=O)(=O)c2cccs2)C(C(=O)Nc2ccc3[nH]c4c(c3c2)CCNC4=O)C1` (stereo not drawn) [4-heptyl-1-(thiophene-2-sulfonyl)-piperazine-2-carboxylic acid (1-oxo-2,3,4,9-tetrahydro-1H-beta-carbolin-6-yl)amide], the EC50 is 1.2 µM.

With `CCCCCCN1CCN(S(=O)(=O)c2cccs2)[C@H](C(=O)Nc2ccc3c(c2)nc(-c2ccncc2)n3CC)C1` [4-hexyl-1-(thiophene-2-sulfonyl)-piperazine-2-carboxylic acid (1-ethyl-2-pyridin-4-yl-1H-benzoimidazol-5-yl)amide], the EC50 turned out to be 0.111 µM. As for `CCCCCCN1CCN(S(=O)(=O)c2cccs2)[C@H](C(=O)Nc2ccc3c(c2)nc(-c2cccnc2)n3CC)C1` [4-hexyl-1-(thiophene-2-sulfonyl)-piperazine-2-carboxylic acid (1-ethyl-2-pyridinyl-3-yl-1H-benzoimidazole-5-yl)-amide)], the figure is 0.04 µM.

Values taken from patent publication US7754722B2, “Piperazine derivatives and methods of use” (Merck Serono SA, priority 2002, dated 2010).
